The kinase profiling compilation of Christmann-Franck et al. (2016)

Columns and labels:
Assay in all cases: KINOMEscan competition binding
Conditions in all cases: compound 10.0 µM
BTK (human) = BTK (human) (UniProt Q06187)
HUNK (human) = HUNK (human) (UniProt P57058)
PI4KB (human) = PI4KB (human) (UniProt Q9UBF8)
RPS6KB1 (human) = RPS6KB1 (human) (UniProt P23443)
CLK3 (human) = CLK3 (human) (UniProt P49761)
CDKL3 (human) = CDKL3 (human) (UniProt Q8IVW4)
ACVR2B (human) = ACVR2B (human) (UniProt Q13705)
ERBB2 (human) = ERBB2 (human) (UniProt P04626)
TEK (human) = TEK (human) (UniProt Q02763)
CDK14 (human) = CDK14 (human) (UniProt O94921)
GAK (human) = GAK (human) (UniProt O14976)
TLK1 (human) = TLK1 (human) (UniProt Q9UKI8)
MAP2K1 (human) = MAP2K1 (human) (UniProt Q02750)
STK35 (human) = STK35 (human) (UniProt Q8TDR2)
PAK6 (human) = PAK6 (human) (UniProt Q9NQU5)
MTOR (human) = MTOR (human) (UniProt P42345)
ABL2 (human) = ABL2 (human) (UniProt P42684)
ERBB4 (human) = ERBB4 (human) (UniProt Q15303)
PAK2 (human) = PAK2 (human) (UniProt Q13177)
EPHB1 (human) = EPHB1 (human) (UniProt P54762)
DYRK2 (human) = DYRK2 (human) (UniProt Q92630)
EPHA8 (human) = EPHA8 (human) (UniProt P29322)
HIPK3 (human) = HIPK3 (human) (UniProt Q9H422)
MAP2K6 (human) = MAP2K6 (human) (UniProt P52564)
INSRR (human) = INSRR (human) (UniProt P14616)
AXL (human) = AXL (human) (UniProt P30530)
DCLK3 (human) = DCLK3 (human) (UniProt Q9C098)
SYK (human) = SYK (human) (UniProt P43405)
PRKD1 (human) = PRKD1 (human) (UniProt Q15139)
MAP3K3 (human) = MAP3K3 (human) (UniProt Q99759)
CDK7 (human) = CDK7 (human) (UniProt P50613)
NEK6 (human) = NEK6 (human) (UniProt Q9HC98)
CaMK1 (human) = CaMK1 (human) (UniProt Q14012)
RPS6KA1 KD1 (human) = RPS6KA1 KD1 (human) (UniProt Q15418)
TESK1 (human) = TESK1 (human) (UniProt Q15569)
SBK1 (human) = SBK1 (human) (UniProt Q52WX2)
[1] = test system: RET (human), P07949 [V804M]
GSK3B (human) = GSK3B (human) (UniProt P49841)
IGF1R (human) = IGF1R (human) (UniProt P08069)
STK17B (human) = STK17B (human) (UniProt O94768)
NTRK3 (human) = NTRK3 (human) (UniProt Q16288)

MAP3K3 (human), sequence (Q99759 whole entry, looked up): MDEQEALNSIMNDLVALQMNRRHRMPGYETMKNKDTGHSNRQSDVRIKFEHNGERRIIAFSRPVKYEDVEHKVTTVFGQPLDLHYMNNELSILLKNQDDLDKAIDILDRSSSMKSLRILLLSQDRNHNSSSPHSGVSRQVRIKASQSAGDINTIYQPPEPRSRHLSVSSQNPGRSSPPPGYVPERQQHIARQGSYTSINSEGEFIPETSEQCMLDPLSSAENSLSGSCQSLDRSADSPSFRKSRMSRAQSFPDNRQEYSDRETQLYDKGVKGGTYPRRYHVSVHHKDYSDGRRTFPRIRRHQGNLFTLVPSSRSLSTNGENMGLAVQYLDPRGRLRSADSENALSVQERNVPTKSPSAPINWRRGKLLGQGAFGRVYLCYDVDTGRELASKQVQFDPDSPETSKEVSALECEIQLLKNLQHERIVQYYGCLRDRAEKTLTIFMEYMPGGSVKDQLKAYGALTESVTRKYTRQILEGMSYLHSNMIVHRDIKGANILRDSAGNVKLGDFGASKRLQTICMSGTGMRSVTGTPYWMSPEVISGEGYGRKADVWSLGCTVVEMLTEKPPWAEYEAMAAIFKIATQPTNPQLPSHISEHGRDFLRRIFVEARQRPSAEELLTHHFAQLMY
ERBB2 (human), sequence (P04626 whole entry, looked up): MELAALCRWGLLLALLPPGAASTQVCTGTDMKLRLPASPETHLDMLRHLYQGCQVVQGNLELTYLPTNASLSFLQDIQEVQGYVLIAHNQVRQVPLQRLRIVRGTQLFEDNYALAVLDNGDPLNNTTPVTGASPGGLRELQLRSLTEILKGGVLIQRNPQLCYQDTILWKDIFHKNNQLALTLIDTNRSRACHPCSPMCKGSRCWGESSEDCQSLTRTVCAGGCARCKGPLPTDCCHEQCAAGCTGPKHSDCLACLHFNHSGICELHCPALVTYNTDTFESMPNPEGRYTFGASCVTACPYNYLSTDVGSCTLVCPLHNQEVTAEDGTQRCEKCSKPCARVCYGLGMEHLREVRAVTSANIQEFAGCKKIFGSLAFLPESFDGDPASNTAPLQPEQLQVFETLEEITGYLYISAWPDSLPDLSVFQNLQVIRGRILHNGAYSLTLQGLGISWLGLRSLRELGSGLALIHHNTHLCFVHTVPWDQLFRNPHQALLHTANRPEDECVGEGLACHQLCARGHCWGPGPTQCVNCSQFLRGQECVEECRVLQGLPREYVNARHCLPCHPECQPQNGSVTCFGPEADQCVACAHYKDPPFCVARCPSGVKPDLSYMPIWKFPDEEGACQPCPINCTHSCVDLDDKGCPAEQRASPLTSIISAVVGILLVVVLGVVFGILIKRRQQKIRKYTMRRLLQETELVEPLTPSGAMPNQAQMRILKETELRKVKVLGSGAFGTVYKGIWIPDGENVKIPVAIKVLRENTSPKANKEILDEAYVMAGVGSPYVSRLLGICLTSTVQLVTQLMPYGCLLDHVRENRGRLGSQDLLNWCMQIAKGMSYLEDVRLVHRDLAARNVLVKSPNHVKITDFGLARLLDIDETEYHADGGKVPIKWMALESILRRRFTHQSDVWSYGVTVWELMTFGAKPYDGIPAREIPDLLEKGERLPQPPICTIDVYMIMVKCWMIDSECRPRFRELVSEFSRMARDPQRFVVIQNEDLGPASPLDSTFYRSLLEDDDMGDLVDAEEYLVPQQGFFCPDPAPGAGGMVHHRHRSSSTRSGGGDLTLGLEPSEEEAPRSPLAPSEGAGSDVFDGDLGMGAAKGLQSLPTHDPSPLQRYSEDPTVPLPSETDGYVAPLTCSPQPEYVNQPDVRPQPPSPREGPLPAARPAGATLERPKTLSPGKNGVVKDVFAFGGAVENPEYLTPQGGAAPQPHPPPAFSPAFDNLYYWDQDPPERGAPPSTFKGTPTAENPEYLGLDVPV
SBK1 (human), sequence (Q52WX2 whole entry, looked up): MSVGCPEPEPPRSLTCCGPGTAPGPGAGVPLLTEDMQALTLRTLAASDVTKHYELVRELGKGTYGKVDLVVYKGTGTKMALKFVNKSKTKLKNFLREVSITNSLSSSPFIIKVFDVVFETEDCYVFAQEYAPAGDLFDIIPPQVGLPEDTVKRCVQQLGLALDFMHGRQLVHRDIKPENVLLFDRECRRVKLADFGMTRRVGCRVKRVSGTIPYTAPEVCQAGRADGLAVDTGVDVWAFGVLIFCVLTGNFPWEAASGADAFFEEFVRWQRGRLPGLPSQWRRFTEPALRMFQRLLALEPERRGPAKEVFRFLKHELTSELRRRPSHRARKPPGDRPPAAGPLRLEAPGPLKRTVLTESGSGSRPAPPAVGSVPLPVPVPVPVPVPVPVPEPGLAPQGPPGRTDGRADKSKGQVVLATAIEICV
CDK7 (human), sequence (P50613 whole entry, looked up): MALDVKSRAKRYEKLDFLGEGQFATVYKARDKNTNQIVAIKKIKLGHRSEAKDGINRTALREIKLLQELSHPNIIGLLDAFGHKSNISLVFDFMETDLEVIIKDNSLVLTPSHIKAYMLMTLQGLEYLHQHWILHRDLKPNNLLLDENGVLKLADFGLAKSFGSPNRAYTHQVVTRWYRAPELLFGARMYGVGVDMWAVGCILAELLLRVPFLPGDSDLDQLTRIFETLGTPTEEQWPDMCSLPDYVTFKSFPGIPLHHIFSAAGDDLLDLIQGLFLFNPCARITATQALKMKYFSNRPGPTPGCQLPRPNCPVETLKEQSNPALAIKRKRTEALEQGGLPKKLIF
CDKL3 (human), sequence (Q8IVW4 whole entry, looked up): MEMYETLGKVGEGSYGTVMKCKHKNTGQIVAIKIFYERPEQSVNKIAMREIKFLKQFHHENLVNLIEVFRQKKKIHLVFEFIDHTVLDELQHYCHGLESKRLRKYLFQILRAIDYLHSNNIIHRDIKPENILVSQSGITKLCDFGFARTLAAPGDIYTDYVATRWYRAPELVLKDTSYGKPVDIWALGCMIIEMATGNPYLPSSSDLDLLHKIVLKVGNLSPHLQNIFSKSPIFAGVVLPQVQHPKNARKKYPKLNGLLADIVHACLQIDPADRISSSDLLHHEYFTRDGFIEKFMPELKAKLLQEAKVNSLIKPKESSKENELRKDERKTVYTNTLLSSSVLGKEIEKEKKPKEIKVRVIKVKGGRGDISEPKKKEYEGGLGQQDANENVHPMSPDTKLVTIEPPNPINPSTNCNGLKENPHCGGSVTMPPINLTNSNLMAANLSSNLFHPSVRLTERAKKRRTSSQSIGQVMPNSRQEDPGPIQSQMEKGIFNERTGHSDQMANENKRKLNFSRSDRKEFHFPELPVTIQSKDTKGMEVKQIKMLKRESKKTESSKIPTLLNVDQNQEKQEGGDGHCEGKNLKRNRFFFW
TEK (human), sequence (Q02763 whole entry, looked up): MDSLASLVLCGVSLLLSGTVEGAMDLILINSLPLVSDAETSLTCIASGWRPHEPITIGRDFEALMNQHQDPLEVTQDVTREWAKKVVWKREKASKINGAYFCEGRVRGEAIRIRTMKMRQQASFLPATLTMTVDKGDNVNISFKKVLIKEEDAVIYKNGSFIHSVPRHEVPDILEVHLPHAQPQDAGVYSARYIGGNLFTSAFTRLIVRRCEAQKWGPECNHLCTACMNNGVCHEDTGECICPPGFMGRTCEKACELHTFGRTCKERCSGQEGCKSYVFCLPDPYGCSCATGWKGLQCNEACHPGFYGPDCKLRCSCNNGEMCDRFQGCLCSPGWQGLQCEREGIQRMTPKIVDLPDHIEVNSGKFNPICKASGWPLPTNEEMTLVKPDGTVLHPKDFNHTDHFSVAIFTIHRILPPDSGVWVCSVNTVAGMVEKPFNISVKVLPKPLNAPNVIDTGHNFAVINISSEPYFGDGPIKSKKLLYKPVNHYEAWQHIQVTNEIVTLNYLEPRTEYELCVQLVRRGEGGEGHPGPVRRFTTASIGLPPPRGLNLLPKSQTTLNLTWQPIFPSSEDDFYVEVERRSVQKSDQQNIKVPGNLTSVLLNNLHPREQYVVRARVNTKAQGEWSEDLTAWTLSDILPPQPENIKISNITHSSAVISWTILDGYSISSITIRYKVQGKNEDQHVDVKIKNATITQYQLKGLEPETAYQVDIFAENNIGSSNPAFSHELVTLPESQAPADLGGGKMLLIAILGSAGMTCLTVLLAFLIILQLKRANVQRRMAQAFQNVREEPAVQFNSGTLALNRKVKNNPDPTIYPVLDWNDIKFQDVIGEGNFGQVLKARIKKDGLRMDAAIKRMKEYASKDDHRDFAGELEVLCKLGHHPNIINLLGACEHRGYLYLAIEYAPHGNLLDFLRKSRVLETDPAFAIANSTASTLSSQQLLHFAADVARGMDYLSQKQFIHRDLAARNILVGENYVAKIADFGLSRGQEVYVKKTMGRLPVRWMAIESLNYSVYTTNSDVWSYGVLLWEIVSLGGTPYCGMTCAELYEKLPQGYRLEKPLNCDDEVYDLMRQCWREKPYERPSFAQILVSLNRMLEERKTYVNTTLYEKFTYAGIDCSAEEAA
MAP2K1 (human), sequence (Q02750 whole entry, looked up): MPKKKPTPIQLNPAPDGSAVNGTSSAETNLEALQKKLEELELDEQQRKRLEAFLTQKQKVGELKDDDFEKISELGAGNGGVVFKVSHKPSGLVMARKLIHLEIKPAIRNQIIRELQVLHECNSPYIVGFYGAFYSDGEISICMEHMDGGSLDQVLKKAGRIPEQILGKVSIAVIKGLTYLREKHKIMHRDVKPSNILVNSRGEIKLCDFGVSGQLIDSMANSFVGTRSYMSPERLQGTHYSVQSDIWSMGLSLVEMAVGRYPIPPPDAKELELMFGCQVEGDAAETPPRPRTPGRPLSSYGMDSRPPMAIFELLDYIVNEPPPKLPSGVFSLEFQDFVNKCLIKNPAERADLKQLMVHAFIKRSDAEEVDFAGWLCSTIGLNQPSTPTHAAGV

O=c1cc(N2CCOCC2)oc2c(-c3cccc4c3sc3ccccc34)cccc12 gave a kinase still bound, per cent of control (BTK (human)) of 100%, a kinase still bound, per cent of control (HUNK (human)) of 75% and a kinase still bound, per cent of control (PI4KB (human)) of 100%. The kinase still bound, per cent of control (RPS6KB1 (human)) was 67%, the kinase still bound, per cent of control (CLK3 (human)) was 100% and the kinase still bound, per cent of control (CDKL3 (human)) was 100%. For the same compound, the kinase still bound, per cent of control (ACVR2B (human)) was 98%, the kinase still bound, per cent of control (ERBB2 (human)) was 100% and the kinase still bound, per cent of control (TEK (human)) was 100%. It also gave a kinase still bound, per cent of control (CDK14 (human)) of 100%, a kinase still bound, per cent of control (GAK (human)) of 89% and a kinase still bound, per cent of control (TLK1 (human)) of 71%. The kinase still bound, per cent of control (MAP2K1 (human)) was 76%, the kinase still bound, per cent of control (STK35 (human)) was 80% and the kinase still bound, per cent of control (PAK6 (human)) was 94%. The kinase still bound, per cent of control (MTOR (human)) was 18%, the kinase still bound, per cent of control (ABL2 (human)) was 92% and the kinase still bound, per cent of control (ERBB4 (human)) was 92%. It also gave a kinase still bound, per cent of control (PAK2 (human)) of 61%, a kinase still bound, per cent of control (EPHB1 (human)) of 100% and a kinase still bound, per cent of control (DYRK2 (human)) of 100%. For the same compound, the kinase still bound, per cent of control (EPHA8 (human)) was 82%, the kinase still bound, per cent of control (HIPK3 (human)) was 92% and the kinase still bound, per cent of control (MAP2K6 (human)) was 73%. For the same compound, the kinase still bound, per cent of control (INSRR (human)) was 100%, the kinase still bound, per cent of control (AXL (human)) was 100% and the kinase still bound, per cent of control (DCLK3 (human)) was 100%. The kinase still bound, per cent of control (SYK (human)) was 100%, the kinase still bound, per cent of control (PRKD1 (human)) was 98% and the kinase still bound, per cent of control (MAP3K3 (human)) was 92%. For the same compound, the kinase still bound, per cent of control (CDK7 (human)) was 100%, the kinase still bound, per cent of control (NEK6 (human)) was 100% and the kinase still bound, per cent of control (CaMK1 (human)) was 91%. It also gave a kinase still bound, per cent of control (RPS6KA1 KD1 (human)) of 100%, a kinase still bound, per cent of control (TESK1 (human)) of 72% and a kinase still bound, per cent of control (SBK1 (human)) of 100%. It also gave a kinase still bound, per cent of control [1] of 95%, a kinase still bound, per cent of control (GSK3B (human)) of 44% and a kinase still bound, per cent of control (IGF1R (human)) of 97%. The kinase still bound, per cent of control (STK17B (human)) was 100% and the kinase still bound, per cent of control (NTRK3 (human)) was 74%.
CCN1CCN(C(=O)Cc2ccc(Nc3ncc(F)c(Nc4ccc(C(=O)Nc5ccccc5Cl)cc4)n3)cc2)CC1 was tested, and the kinase still bound, per cent of control (BTK (human)) was 27%, the kinase still bound, per cent of control (HUNK (human)) was 49% and the kinase still bound, per cent of control (PI4KB (human)) was 100%. It also gave a kinase still bound, per cent of control (RPS6KB1 (human)) of 39%, a kinase still bound, per cent of control (CLK3 (human)) of 23% and a kinase still bound, per cent of control (CDKL3 (human)) of 89%. For the same compound, the kinase still bound, per cent of control (ACVR2B (human)) was 38%, the kinase still bound, per cent of control (ERBB2 (human)) was 100% and the kinase still bound, per cent of control (TEK (human)) was 48%. For the same compound, the kinase still bound, per cent of control (CDK14 (human)) was 53%, the kinase still bound, per cent of control (GAK (human)) was 5.7% and the kinase still bound, per cent of control (TLK1 (human)) was 19%. For the same compound, the kinase still bound, per cent of control (MAP2K1 (human)) was 76%, the kinase still bound, per cent of control (STK35 (human)) was 91% and the kinase still bound, per cent of control (PAK6 (human)) was 65%. It also gave a kinase still bound, per cent of control (MTOR (human)) of 20%, a kinase still bound, per cent of control (ABL2 (human)) of 20% and a kinase still bound, per cent of control (ERBB4 (human)) of 53%. The kinase still bound, per cent of control (PAK2 (human)) was 56%, the kinase still bound, per cent of control (EPHB1 (human)) was 66% and the kinase still bound, per cent of control (DYRK2 (human)) was 18%. It also gave a kinase still bound, per cent of control (EPHA8 (human)) of 63%, a kinase still bound, per cent of control (HIPK3 (human)) of 12% and a kinase still bound, per cent of control (MAP2K6 (human)) of 44%. For the same compound, the kinase still bound, per cent of control (INSRR (human)) was 63%, the kinase still bound, per cent of control (AXL (human)) was 2.1% and the kinase still bound, per cent of control (DCLK3 (human)) was 80%. For the same compound, the kinase still bound, per cent of control (SYK (human)) was 33%, the kinase still bound, per cent of control (PRKD1 (human)) was 100% and the kinase still bound, per cent of control (MAP3K3 (human)) was 49%. The kinase still bound, per cent of control (CDK7 (human)) was 22%, the kinase still bound, per cent of control (NEK6 (human)) was 8.4% and the kinase still bound, per cent of control (CaMK1 (human)) was 14%. For the same compound, the kinase still bound, per cent of control (RPS6KA1 KD1 (human)) was 45%, the kinase still bound, per cent of control (TESK1 (human)) was 44% and the kinase still bound, per cent of control (SBK1 (human)) was 75%. It also gave a kinase still bound, per cent of control [1] of 4.6%, a kinase still bound, per cent of control (GSK3B (human)) of 61% and a kinase still bound, per cent of control (IGF1R (human)) of 46%. It also gave a kinase still bound, per cent of control (STK17B (human)) of 13% and a kinase still bound, per cent of control (NTRK3 (human)) of 78%.
